We go through 1 compound from patent publication US8927046B2, “Resveratrol compositions” (DSM IP Assets B.V., priority 2009, dated 2015).

Common to all, as to assay type: physicochemical
A short description of data set [1]: Deposits or visible recrystallization in beverages. The text has this: Preparation: • Dissolve potassium sorbate in a small quantity of water. • Add citric acid solution, dry vitamin E 15% CC and resveratrol CWS. • Stir until all ingredients have dissolved. • Add sugar, stir again and add water to 1 liter. • Fill into appropriate packages and pasteurize or pasteurize and fill aseptically.
Preparation: • Dissolve potassium sorbate in a part of water under stirring. • Add resveratrol CWS under further stirring. • Add sugar syrup, ascorbic acid, citric acid solution, water-soluble flavour and beta-carotene solution, one after the other, under stirring (no high-speed mixer). • Dilute the bottling syrup to one liter of beverage. • Fill into appropriate packages and pasteurize or pasteurize and fill aseptically.

Data set [2] is described as follows: trans-resveratrol suspended in mineral drink water (Arkina) after pasteurization at 80° C. for 1 minute; HPLC concentration and deposit observation. Conditions: for Concentration after 18 hours / Concentration after 5 days / Concentration initial: HPLC. As to the method: (§1) At 80° C. in water, resveratrol crystals need more than 15 minutes to dissolve completely to reach a concentration of 120 mg/liter. […] After the milling, the resveratrol CWS is dissolved within 1 minute at 80° C. 1 minute at 80° C. are standard conditions for the pasteurization step for the production of the beverages. This dissolution of the resveratrol during this pasteurization step ensures a good physical stability of the resveratrol in the beverages.
Different concentration of Resvida™ (resveratrol cryst.) not milled were dispersed in mineral drink water (Arkina) and pasteurized at 80° C. for 1 minute. The following results with trans-resveratrol suspended in water (analysis done with HPLC) have been obtained:
This powder was dissolved in mineral drink water (Arkina) and pasteurized at 80° C. for 1 minute. The following results with trans-resveratrol suspended in water (analysis done with HPLC) have been obtained: […]

Data set [3] is described as follows: Dissolution time in water at 80° C. Conditions: at 80° C. in water, to reach a concentration of 120 mg/liter. As to the method: as §1
Where [4] appears, read: theoretical concentration 81.5 mg/liter, mineral drink water, pasteurized 80° C. 1 minute.
Setting [5] is: theoretical concentration 98.5 mg/liter, mineral drink water, pasteurized 80° C. 1 minute.
Where [6] appears, read: theoretical concentration 119 mg/liter, mineral drink water, pasteurized 80° C. 1 minute.
[7] abbreviates: theoretical concentration 160 mg/liter, mineral drink water, pasteurized 80° C. 1 minute.
Where [8] appears, read: theoretical concentration 205.5 mg/liter, mineral drink water, pasteurized 80° C. 1 minute.

For `Oc1ccc(C=Cc2cc(O)cc(O)c2)cc1` [Resvida, 3,5,4′-trihydroxystilbene], the “deposit when used instead of the CWS form” value in data set [1] (near water beverage of Example 9) is recorded as “a deposit remained which could not be dissolved”; in data set [1] (soft drink of Example 10), “a deposit remains which can not be dissolved”. Besides, the “physical stability of resveratrol dissolved at 80° C.” value in data set [2] (at room temperature, after dissolution in water at 80° C.) was “crystallize and make deposits within a couple of days”. In addition, the Observation result in data set [2] (setting [4]) is reported as “Deposits +”. Besides, the “Concentration after 18 hours” value in data set [2] (setting [4]) was 62.0 µg/mL; in data set [2] (setting [5]) it was 67.0 µg/mL; in data set [2] (setting [6]), 67.7 µg/mL; in data set [2] (setting [7]), 67.5 µg/mL; in data set [2] (setting [8]), 61.3 µg/mL. Also, the “Concentration after 5 days” value in data set [2] (setting [4]) worked out at 65.0 µg/mL; in data set [2] (setting [5]), 47.1 µg/mL; in data set [2] (setting [6]), 55.5 µg/mL; in data set [2] (setting [7]), 46.4 µg/mL; in data set [2] (setting [8]) it was 40.5 µg/mL. In addition, the Concentration initial in data set [2] (setting [4]) was 71.8 µg/mL; in data set [2] (setting [5]), 87.4 µg/mL; in data set [2] (setting [6]), 102.6 µg/mL; in data set [2] (setting [7]), 123.7 µg/mL; in data set [2] (setting [8]), 142.0 µg/mL. Moreover, the “time to dissolve completely” value in data set [3] is “more than 15 minutes”.
